Measured values published in patent publication US20060035925A1, “SUBSTITUTED 4H-CHROMENES AND ANALOGS AS ACTIVATORS OF CASPASES AND INDUCERS OF APOPTOSIS AND THE USE THEREOF” (Cytovia, Inc., priority 1999, published 2006).
Where two headings read alike, the source gives them in different places.

How the values were obtained:
[1] = test system: Human breast cancer cell line ZR-75-1; experiment: Caspase cascade activation assay (N-(Ac-DEVD)-N'-ethoxycarbonyl-R110 fluorogenic substrate) in ZR-75-1 cells; type: cell-based; conditions: for Caspase activity (Ratio) ZR-75-1: 24 h incubation with compound, ratio of net RFU (T=3 h) of test compound to control
Summary of the method: (§1)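 Cells were exposed for 24 h at 37 °C to test compound at 0.016–1 μM final. Lysed with lysolecithin buffer (pH 7.2, DTT) containing 20 μM Ac-DEVD-R110 substrate, and fluorescence (ex 485/em 530 nm) read at 0 and 3 h at room temperature. EC50 from sigmoidal fit of net RFU ratio to control.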

[2] = test system: Human breast cancer cell line T-47D; experiment: Caspase cascade activation assay (N-(Ac-DEVD)-N'-ethoxycarbonyl-R110 fluorogenic substrate) in T-47D cells; type: cell-based; conditions: for Caspase activity (Ratio) T-47D: 24 h incubation with compound, ratio of net RFU (T=3 h) of test compound to control
Summary of the method: as §1

[3] = ZR-75-1 cells, 24 h incubation, sigmoidal dose-response, read-out: Caspase potency EC50 (nM) ZR-75-1
[4] = 24 h incubation, sigmoidal dose-response, read-out: Caspase potency EC50 (nM) T-47D
[5] = Homo sapiens, ZR-75-1, 24 h, ZR-75-1 cells, 24 h incubation, sigmoidal dose-response, read-out: Caspase potency EC50 (nM) ZR-75-1
[6] = Homo sapiens, T47D, 24 h, 24 h incubation, sigmoidal dose-response, read-out: Caspase potency EC50 (nM) T-47D

Row | Molecule | EC50 ([1]; Homo sapiens, ZR-75-1, ZR-75-1 cells, additional compounds, Table II, read-out: Caspase potency EC50 (nM) ZR-75-1, Table II) | Caspase activity (Ratio) ZR-75-1, Table II ([1]; ZR-75-1 cells, additional compounds, Table II) | EC50 ([2]; Homo sapiens, T47D, additional compounds, Table II, read-out: Caspase potency EC50 (nM) T-47D, Table II) | Caspase activity (Ratio) T-47D, Table II ([2]; additional compounds, Table II) | Caspase activity (Ratio) ZR-75-1 ([1]; ZR-75-1 cells) | EC50 [1, 3] | Caspase activity (Ratio) T-47D [2] | EC50 [2, 4] | EC50 [1, 5] | EC50 [2, 6]
1 | N#CC1=C(N)Oc2cc(N)ccc2C1c1cccc(I)c1 (centres unmarked) [2,7-Diamino-3-cyano-4-(3-iodophenyl)-4H-chromene] | 18 nM | 5.1 | 33 nM | 4.8 | – | – | – | – | – | –
2 | COc1cc(C2C(C#N)=C(N)Oc3cc(N4CCNCC4)ccc32)cc(Br)c1OC (centres unmarked) [Example 66B, 2-Amino-3-cyano-7-piperazine-4-(3-bromo-4,5-dimethoxyphenyl)-4H-chromene] | – | – | – | – | 6.8 | 1470 nM | 5.7 | 2910 nM | – | –
3 | N#CC1=C(N)OC2C3=CC=NC3=CC=C2C1c1ccccc1 (centres unmarked) [Example 56, 2-Amino-3-cyano-4-phenyl-4H-indolo[4,5-b]pyran] | – | – | – | – | 7.7 | – | 8.3 | – | 157 nM | 252 nM
4 | COc1cccc(C2C(C#N)=C(N)Oc3cc(N)ccc32)c1 (centres unmarked) [Example 21, 2,7-Diamino-3-cyano-4-(3-methoxyphenyl)-4H-chromene] | – | – | – | – | 9.2 | – | 6.0 | – | 562 nM | 697 nM
5 | 2-Amino-4-(3-bromo-4,5-dimethoxyphenyl)-3-cyano-9-methyl-4H-imidazo[4,5-b]chromene [Example 75] | – | – | – | – | 3.4 | 146 nM | 6.3 | 345 nM | – | –
6 | COc1cc(C2C(C#N)=C(N)Oc3c2ccc2nccnc32)cc(Br)c1OC (centres unmarked) [Example 79, 2-Amino-3-cyano-4-(3-bromo-4,5-dimethoxy-phenyl)-4H-pyrazino [2,3-h]chromene] | – | – | – | – | 10.2 | 103 nM | 8.3 | 209 nM | – | –
7 | CC1(c2ccccc2)C(C#N)=C(N)Oc2ccccc21 (centres unmarked) [Example 68B, 2-Amino-3-cyano-4-phenyl-4-methylchromene] | – | – | – | – | 1.8 | – | 1.0 | – | > 10000 nM | > 10000 nM
8 | COc1cc(C2C(C#N)=C(N)Oc3cc(-n4cccc4)ccc32)cc(Br)c1OC (centres unmarked) [Example 67, 2-Amino-3-cyano-7-pyrrole-4-(3-bromo-4,5-dimethoxyphenyl)-4H-chromene] | – | – | – | – | 6.9 | 148 nM | 9.2 | 349 nM | – | –
9 | COc1cncc(C2C3=CC=C4N=CC=C4C3OC(N)=C2C#N)c1 (centres unmarked) [Example 41, 2-Amino-3-cyano-4-(5-methoxy-pyridin-3-yl)-4H-indolo[4,5-b]pyran] | – | – | – | – | 7.2 | – | 6.8 | – | 6.6 nM | 13.9 nM
10 | N#CC1=C(N)Oc2cc(N)ccc2C1c1cccnc1 (centres unmarked) [Example 24, 2,7-Diamino-3-cyano-4-(3-pyridyl)-4H-chromene] | – | – | – | – | <2 | – | <2 | – | > 10000 nM | > 10000 nM
11 | N#CC1=C(N)Oc2cc(N)ccc2C1c1cncc(Br)c1 (centres unmarked) [Example 37, 2,7-Diamino-3-cyano-4-(5-bromo-3-pyridyl)-4H-chromene] | – | – | – | – | 3.4 | – | 6.4 | – | 31 nM | 57 nM
12 | COc1ccc2c(c1)OC(N)=C(C#N)C2c1cccc(C#N)c1 (centres unmarked) [Example 5, 2-Amino-3-cyano-7-methoxy-4-(3-cyanophenyl)-4H-chromene] | – | – | – | – | 7.1 | – | 6.9 | – | 46 nM | 37 nM
13 | N#CC1=C(N)Oc2c(ccc3cc[nH]c23)C1c1cccc(C(F)(F)F)c1 (centres unmarked) [Example 54, 2-Amino-3-cyano-4-(3-trifluromethyl-phenyl)-4H-indolo[7,6-b]pyran] | – | – | – | – | 7.5 | 216 nM | 7.3 | 314 nM | – | –
14 | COc1cc(OC)cc(C2C3=CC=C4C=CN=C4C3OC(N)=C2C#N)c1 (centres unmarked) [Example 52, 2-Amino-3-cyano-4-(3,5-dimethoxyphenyl)-4H-indolo[7,6-b]pyran] | – | – | – | – | 9.9 | – | 11.8 | – | 22.7 nM | 26 nM
15 | CCNc1ccc2c(c1)OC(N)=C(C#N)C2c1cc(OC)cc(OC)c1 (centres unmarked) [Example 14, 2-Amino-3-cyano-7-ethylamino-4-(3,5-dimethoxyphenyl)-4H-chromene] | – | – | – | – | 7.7 | – | 7 | – | 10 nM | 10 nM
16 | COc1cc(C2C3=CC=C4C=CN=C4C3OC(N)=C2C#N)cc(Br)c1O (centres unmarked) [Example 51, 2-Amino-4-(3-bromo-4-hydroxy-5-methoxyphenyl)-3-cyano-4H-indolo[7,6-b]pyran] | – | – | – | – | 6.7 | – | 11.5 | – | 18.6 nM | 36.8 nM
17 | Cc1cncc(C2C3=CC=C4C=CN=C4C3OC(N)=C2C#N)n1 (centres unmarked) [Example 61, 2-Amino-3-cyano-4-(6-methyl-pyrazin-2-yl)-4H-indolo[7,6-b]pyran] | – | – | – | – | 7.0 | – | 4.1 | – | 1630 nM | 2900 nM
18 | COc1cccc(C2C3=CC=C4C=CN=C4C3OC(N)=C2C#N)c1 (centres unmarked) [Example 43, 2-Amino-3-cyano-4-(3-methoxyphenyl)-4H-indolo[7,6-b]pyran] | – | – | – | – | 5.9 | – | 6.5 | – | 81.9 nM | 143 nM
19 | N#CC1=C(N)Oc2cc(N)ccc2C1c1cccc(Br)c1 (centres unmarked) [Example 19, 2,7-Diamino-3-cyano-4-(3-bromophenyl)-4H-chromene] | – | – | – | – | 9.2 | – | 5.9 | – | 206 nM | 274 nM
20 | CCNc1ccc2c(c1)OC(N)=C(C#N)C2c1cncc(Br)c1 (centres unmarked) [Example 32, 2-Amino-3-cyano-4-(5-bromo-3-pyridyl)-7-ethylamino-4H-chromene] | – | – | – | – | 9.5 | – | 7.2 | – | 4 nM | 17 nM
21 | COc1cc(C2C(C#N)=C(N)Oc3cc(N4CCCC4)ccc32)cc(Br)c1OC (centres unmarked) [Example 66A, 2-Amino-3-cyano-7-pyrrolidine-4-(3-bromo-4,5-dimethoxyphenyl)-4H-chromene] | – | – | – | – | 6.0 | 79.4 nM | 3.7 | 110 nM | – | –
22 | COc1cccc(C2C(C#N)=C(N)Oc3c2ccc(N)c3N)c1 (centres unmarked) [Example 44, 3-Cyano-2,7,8-triamino-4-(3-methoxyphenyl)-4H-chromene] | – | – | – | – | 9.6 | – | 7.0 | – | 138 nM | 256 nM
23 | COc1ccc2c(c1)OC(N)=C(C#N)C2c1cc(OC)c(OC)c(OC)c1 (centres unmarked) [Example 3, 2-Amino-3-cyano-7-methoxy-4-(3,4,5-trimethoxyphenyl)-4H-chromene] | – | – | – | – | 4.5 | – | 8.4 | – | 16 nM | 29 nM
24 | N#CC1=C(N)Oc2cc(N)ccc2C1c1cccc(Cl)c1 (centres unmarked) [Example 22, 2,7-Diamino-3-cyano-4-(3-chlorophenyl)-4H-chromene] | – | – | – | – | 8.0 | – | 5.8 | – | 2480 nM | 4800 nM
25 | CCNc1ccc2c(c1)OC(N)=C(C#N)C2c1cc(OC)c(OC)c(OC)c1 (centres unmarked) [Example 13, 2-Amino-3-cyano-7-ethylamino-4-(3,4,5-trimethoxyphenyl)-4H-chromene] | – | – | – | – | 7.0 | – | 4.4 | – | 14 nM | 25 nM
26 | COc1cc(OC)cc(C2C(C#N)=C(N)Oc3cc(OC)ccc32)c1 (centres unmarked) [Example 12, 2-Amino-3-cyano-7-methoxy-4-(3,5-dimethoxyphenyl)-4H-chromene] | – | – | – | – | 6.7 | – | 6.1 | – | 9 nM | 14 nM
